This data set relates to EU-1. The data set can be described thus: WST cytotoxicity assay, cancer cell EU-1. In kind it is cell-based, human. The following applies: no other cell line named in the cell, read-out: Cancer cell (EU-1) cytotoxicity IC50. How it is done:
This study used two ALL cell lines (EU-1 and EU-3) and three NB cell lines (NB-1643, SHEP1 and LA1-55N). All 5 cancer cell lines were established from pediatric ALL or NB patients and were well-characterized for their expression of MDM2 and p53-status, as reported previously. All cell lines were grown in standard culture medium (RPMI 1640 containing 10% FBS, 2 mmol/L L-glutamine, 50 U penicillin and 50 μg/mL streptomycin) at 37° C. in a humidified atmosphere containing 5% CO2.
The cytotoxic effect of MX 69 and MX69 analogs on cancer cells was determined using the water-soluble tetrazolium salt (WST) assay. Briefly, cells cultured in 96-well microtiter plates were treated with different concentrations of AQ-101 for a 20-h period. WST (25 μg/well) was then added and incubation continued for an additional 4 h, after which optical density (OD) was read with a microplate reader (test wavelength of 450 nm; reference wavelength of 620 nm).

The term IC50 denotes the point on the concentration scale where inhibition reaches its midpoint.

Each structure is given as a SMILES string. Read-outs that look alike come from different tables or passages of the source.

As for `Cc1ccc(NS(=O)(=O)c2ccc3c(c2)[C@H]2OCC[C@H]2C(c2ccc(C(=O)C4CC4)cc2)N3)cc1Cl` (stereo partly shown) [Compound 69L69], the IC50 (Homo sapiens, EU-1, EU-1) worked out at 5.81 µM. Regarding `CN(C)c1cccc(NS(=O)(=O)c2ccc3c(c2)[C@H]2OCC[C@H]2[C@H](C2CCCCC2)N3)c1` [Compound 69L143], for the setting “Homo sapiens, EU-1, EU-1”, the IC50 was 3.96 µM.

Turning to `Cc1ccc(NS(=O)(=O)c2ccc3c(c2)C2NCC[C@H]2[C@@H](c2ccc(S(C)(=O)=O)cc2)N3)cc1C` (stereo partly shown) [Compound 69L43], the IC50 (Homo sapiens, EU-1, EU-1) turned out to be 12 µM.

As to `COc1cccc(NS(=O)(=O)c2ccc3c(c2)C(=O)CC(c2cccc(C(=O)N(C)C)c2)N3)c1` (stereo not shown) [Compound 69L159, 3-(6-(N-(3-methoxyphenyl)sulfamoyl)-4-oxo-1,2,3,4-tetrahydroquinolin-2-yl)-N,N-dimethylbenzamide], the IC50 (Homo sapiens, EU-1, EU-1) worked out at 0.65 µM. The same measure, in the same setting: to `CC(=O)c1cccc(C2CC(=O)c3cc(S(=O)(=O)Nc4cccc(C(C)C)c4)ccc3N2)c1` (stereo not shown) [Compound 69L135] belongs 0.15 µM. Still for that read-out and setting: under `Cc1ccc(NS(=O)(=O)c2ccc3c(c2)[C@H]2C=CC[C@H]2[C@H](c2ccc(S(C)(=O)=O)cc2)N3)cc1C` [Compound 69L21] stands 6.18 µM. Still for that read-out and setting: to `CC(C)C(=O)c1cccc(C2CC(=O)c3cc(S(=O)(=O)Nc4cccc5c4COC5=O)ccc3N2)c1` (stereo not shown) [Compound 69L149] belongs 0.58 µM. For `CC(C)C(=O)c1cccc(C2CC(=O)c3cc(S(=O)(=O)Nc4cccc(C#N)c4)ccc3N2)c1` (stereo not shown) [Compound 69L155], where the note is “Homo sapiens, EU-1, EU-1”, the IC50 was 1.45 µM.

On to `CC(C)C(=O)c1ccc(C2Nc3ccc(S(=O)(=O)Nc4cccc(C(C)(C)C)c4)cc3[C@H]3OCC[C@@H]23)cc1` (stereo partly shown) [Compound 69L136], for which the IC50 (Homo sapiens, EU-1, EU-1) came to 6.16 µM. The same measure, in the same setting: to `O=S(=O)(Nc1ccc(Br)c(Br)c1)c1ccc2c(c1)[C@H]1OCC[C@H]1[C@H](C1CCCCC1)N2` [Compound 69L68] belongs 5.1 µM; to `Cc1ccc(NS(=O)(=O)c2ccc3c(c2)C2[C@@H](CCN2C(=O)OC(C)(C)C)C(c2ccc(S(C)(=O)=O)cc2)N3)cc1C` (stereo partly shown) [Compound 69L42], 19.9 µM. With `Cc1ccc(NS(=O)(=O)c2ccc3c(c2)[C@H]2OCC[C@H]2C(c2ccc(C(C)C)cc2)N3)cc1C` (stereo partly shown) [Compound 69L31], the IC50 (Homo sapiens, EU-1, EU-1) came out at 4.24 µM. Still for that read-out and setting: to `Cc1ccc(NS(=O)(=O)c2ccc3c(c2)C2CCC[C@H]2[C@H](c2ccc(C(O)C(C)C)cc2)N3)cc1C` (stereo partly shown) [Compound 69L86] belongs 3.77 µM; to `C=CC(=O)c1ccc(C2Nc3ccc(S(=O)(=O)Nc4ccc(C)c(C)c4)cc3[C@H]3OCC[C@@H]23)cc1` (stereo partly shown) [Compound 69L71], 30 µM. The same measure, in the same setting: to `CC(C)C(=O)c1cccc(C2CC(=O)c3cc(S(=O)(=O)Nc4cccc(C(C)C)c4)ccc3N2)c1` (stereo not shown) [Compound 69L139] belongs 0.66 µM; to `COC(=O)c1ccc([C@H]2Nc3ccc(S(=O)(=O)Nc4ccc(C)c(C)c4)cc3C3OCCC32)cc1` (stereo partly shown) [Compound 69L12], 3 to 3.9 µM; to `Cc1ccc(NS(=O)(=O)c2ccc3c(c2)C(=O)CC(c2cccc(C(=O)N(C)C)c2)N3)cc1C` (stereo not shown) [Compound 69L158], 0.63 µM. Same read-out and setting: under `CCC(=O)c1cccc(NS(=O)(=O)c2ccc3c(c2)C2OCC[C@H]2C(c2ccc4c(c2)CCO4)N3)c1` (stereo in doubt) [Compound 69L127, 4-(2,3-dihydrobenzofuran-5-yl)-N-(3-propionylphenyl)-2,3,3a,4,5,9b-hexahydrofuro[3,2-c]quinoline-8-sulfonamide] stands 4.8 µM; under `CC(=O)c1cccc(C2CC(=O)c3cc(S(=O)(=O)Nc4ccc5c(c4)OCO5)ccc3N2)c1` (stereo not shown) [Compound 69L147], 1.16 µM. On to `CC(=O)c1cccc(S(=O)(=O)Nc2ccc3c(c2)[C@H]2OCC[C@H]2C(c2ccc(C(=O)C(C)C)cc2)N3)c1` (stereo partly shown) [Compound 69L163, 3-acetyl-N-(4-(4-isobutyrylphenyl)-2,3,3a,4,5,9b-hexahydrofuro[3,2-c]quinolone-8-yl)benzenesulfonamide], for which, under “Homo sapiens, EU-1, EU-1”, the IC50 was 2.5 µM.

For the molecule `Cc1ccc(NS(=O)(=O)c2ccc3c(c2)[C@H]2OCC[C@H]2C(c2ccc(C(=O)C4CC4)cc2)N3)cc1C` (stereo partly shown) [Compound 69L67], the IC50 (Homo sapiens, EU-1, EU-1) amounted to 5.18 µM. Regarding `COC(=O)c1ccc([C@@H]2Nc3ccc(S(=O)(=O)Nc4ccc(C)c(C)c4)cc3[C@H]3OCC[C@H]32)cc1` [Compound 69L13], the IC50 (EU-1) was in the range of 6.4 to 9 µM.

Turning to `Cc1ccc(NS(=O)(=O)c2ccc3c(c2)[C@H]2OCC[C@H]2C(c2ccc(B(O)O)cc2)N3)cc1C` (stereo partly shown) [Compound 69L18], the IC50 (Homo sapiens, EU-1, EU-1) worked out at 14.7 µM. Still for that read-out and setting: to `Cc1ccc(NS(=O)(=O)c2ccc3c(c2)[C@H]2OCC[C@H]2C(c2ccc(Br)cc2)N3)cc1C` (stereo partly shown) [Compound 69L8] belongs 3.61 µM; to `Cc1ccc(NS(=O)(=O)c2ccc3c(c2)C2NCC[C@H]2C(c2c[nH]c4ccccc24)N3)cc1C` (stereo partly shown) [Compound 69L37], 4.81 µM; to `Cc1ccc(NS(=O)(=O)c2ccc3c(c2)C2CCC[C@H]2[C@H](c2ccc(C(=O)C(C)C)cc2)N3)cc1C` (stereo partly shown) [Compound 69L88], 6.97 µM. Still for that read-out and setting: to `CCC(=O)c1cccc(NS(=O)(=O)c2ccc3c(c2)C(=O)CC(c2cccc(C(C)=O)c2)N3)c1` (stereo not shown) [Compound 69L126, 2-(3-acetylphenyl)-4-oxo-N-(3-propionylphenyl)-1,2,3,4-tetrahydro-quinoline-6-sulfonamide] belongs 1.14 µM. On the same count and under the same terms, under `Cc1ccc(NS(=O)(=O)c2ccc3c(c2)C2NCC[C@H]2[C@H](c2ccc(C(=O)O)cc2)N3)cc1C` (stereo partly shown) [Compound 69L41] stands greater than 50 µM. As to `Cc1ccc(NS(=O)(=O)c2ccc3c(c2)[C@H]2OCC[C@H]2C(c2ccc(S(C)(=O)=O)cc2)N3)cc1C` (stereo partly shown) [Compound 69L19], where the note is “Homo sapiens, EU-1, EU-1”, the IC50 stood at 4.06 µM.

For `CC(=O)c1ccc([C@@H]2CC(O)c3cc(S(=O)(=O)Nc4ccc(C)c(C)c4)ccc3N2)cc1` (stereo partly shown) [Compound 69L47], the IC50 (Homo sapiens, EU-1, EU-1) came out at 2.1 µM. Still for that read-out and setting: under `COC(=O)c1ccc([C@@]2(N)C[C@H](c3ccc(Cl)cc3)c3cc(S(=O)(=O)Nc4ccc(C)c(C)c4)ccc3N2)cc1` [Compound 69L14] stands greater than 50 µM; under `Cc1ccc(NS(=O)(=O)c2ccc3c(c2)[C@H]2OCC[C@H]2[C@H](c2ccc(C(=O)O)cc2)N3)cc1C` [Compound 69L5], greater than 50 µM; under `Cc1ccc(NS(=O)(=O)c2ccc3c(c2)[C@H]2OCC[C@H]2C(c2ccc(-n4ccccc4=O)cc2)N3)cc1C` (stereo partly shown) [Compound 69L15], 17.9 µM. Consider `COC(=O)c1ccc(C2Nc3ccc(S(=O)(=O)Nc4ccc(C)c(C)c4)cc3C3NCC[C@@H]23)cc1` (stereo partly shown) [Compound 69L34], for which the IC50 (Homo sapiens, EU-1, EU-1) is 3.44 µM. Still for that read-out and setting: to `CC(C)C(=O)c1cccc(C2Nc3ccc(S(=O)(=O)Nc4cccc(C(C)O)c4)cc3C3OCC[C@@H]23)c1` (stereo partly shown) [Compound 69L122] belongs greater than 10 µM; to `CC(=O)c1ccc(C2Nc3ccc(S(=O)(=O)Nc4cccc(C(C)=O)c4)cc3[C@H]3OCC[C@@H]23)cc1` (stereo partly shown) [Compound 69L110], 0.27 µM; to `Cc1ccc(NS(=O)(=O)c2ccc3c(c2)C2OCC[C@H]2[C@@H](c2ccc(C(=O)C(C)C)cc2)N3)cc1C` (stereo partly shown) [Compound 69L52b], 1.4 to 1.6 µM. The same measure, in the same setting: to `CC(C)C(=O)c1ccc(C2Nc3ccc(S(=O)(=O)Nc4cccc(N(C)C)c4)cc3[C@H]3OCC[C@@H]23)cc1` (stereo partly shown) [Compound 69L141] belongs 7.5 µM.

For the molecule `Cc1ccc(N(C)S(=O)(=O)c2ccc3c(c2)[C@H]2OCC[C@H]2[C@@H](c2ccc(C(=O)C(C)C)cc2)N3)cc1C` (stereo in doubt) [Compound 69L132, N-(3,4-dimethylphenyl)-4-(4-isobutyrylphenyl)-N-methyl-2,3,3a,4,5,9b-hexahydrofuro[3,2-c]quinoline-8-sulfonamide], the IC50 (Homo sapiens, EU-1, EU-1) stood at 1.57 µM. Still for that read-out and setting: under `COC(=O)c1ccc([C@@H]2Nc3cc(Cl)c(S(=O)(=O)Nc4ccc(C)c(C)c4)cc3[C@H]3C=CC[C@H]32)cc1` [Compound 69L22] stands 19.3 µM.

With `COc1cc(NS(=O)(=O)c2ccc3c(c2)C(=O)CC(c2ccc(C(C)=O)cc2)N3)ccc1C` (stereo not shown) [Compound 69L165], the IC50 (Homo sapiens, EU-1, EU-1) was 8.9 µM. Same read-out and setting: under `CC(=O)c1cccc(NS(=O)(=O)c2ccc3c(c2)C2NCC[C@H]2[C@@H](c2ccc(C(=O)C(C)C)cc2)N3)c1` (stereo partly drawn) [69L130 trans] stands greater than 10 µM; under `Cc1ccc(NS(=O)(=O)c2ccc3c(c2)C(=O)CC(c2cccc(C(=O)C(C)C)c2)N3)cc1C#N` (stereo not shown) [Compound 69L156], 0.54 µM; under `Cc1ccc(S(=O)(=O)Nc2ccc3c(c2)[C@H]2OCC[C@H]2C(c2ccc(C(=O)C(C)C)cc2)N3)cc1C` (stereo in doubt) [Compound 69L162, N-(4-(4-isobutyrylphenyl)-2,3,3a,4,5,9b-hexahydrofuro[3,2-c]quinolin-8-yl)-3,4-dimethylbenzenesulfonamide], greater than 5 µM. On the same count and under the same terms, to `Cc1ccc(NS(=O)(=O)c2ccc3c(c2)C(O)C[C@H](c2ccc(C(=O)O)cc2)N3)cc1C` (stereo partly shown) [Compound 69L40] belongs greater than 50 µM. On the same count and under the same terms, under `Cc1ccc(NS(=O)(=O)c2ccc3c(c2)[C@H]2c4ccccc4C[C@H]2[C@H](c2ccc(Br)cc2)N3)cc1C` [Compound 69L7] stands greater than 50 µM; under `CCOC1C[C@@H](c2ccc(C(C)=O)cc2)Nc2ccc(S(=O)(=O)Nc3ccc(C)c(C)c3)cc21` (stereo partly shown) [Compound 69L46], 6.5 µM.

With `Cc1ccc(NS(=O)(=O)c2ccc3[nH]c(-c4ccc(C(=O)C(C)C)cc4)c(I)c(=O)c3c2)cc1C` [Compound 69L97], the IC50 (Homo sapiens, EU-1, EU-1) was 9.36 µM. With `COC(=O)c1ccc([C@H]2Nc3ccc(S(=O)(=O)Nc4ccc(C)c(C)c4)cc3[C@H]3OCC[C@@H]23)cc1` [Compound 69L28], the IC50 (Homo sapiens, EU-1, EU-1) was in the range of 8.4 to 11.9 µM.

The record behind these values is patent US20240059658A1 (Emory University, priority 2019, published 2024).
